Data reported in patent US20230174488A1 (priority 2020, published 2023).

Molecular target: SARS-CoV-2 M^PRO (Severe acute respiratory syndrome coronavirus 2, UniProt P0DTD1)
Test: biochemical
Assay type: biochemical
Conditions: In vitro potency data; 30 min pre-incubation, 25 nM M^pro, 25 µM substrate; read-out: IC50

| SMILES | IC50 |
| --- | --- |
| O=C(NC1CCCCC1)C(c1cccnc1)N(CCc1ccccc1Cl)C(=O)CCl (stereo not shown) [INSCoV-503D] | 2650 nM |
| CCS(=O)(=O)N1CCC(NC(=O)C(c2cnccn2)N(C(=O)CCl)c2ccc(-c3cnco3)cc2)CC1 (stereo not shown) [INSCoV-501R(1), 2-Chloro-N-(2-((1-(Ethylsulfonyl)Piperidin-4-yl)Amino)-2-Oxo-1-(Pyrazin-2-yl)Ethyl)-N-(4-(Oxazol-5-yl)Phenyl)Acetamide] | 570 nM |
| N#Cc1cc(OC(F)(F)F)ccc1N(C(=O)CCl)[C@@H](C(=O)NC1CCCCC1)c1cccnc1 [INSCoV-517(1)] | 80 nM |
| O=C(NC1CCC(F)(F)CC1)C(c1cnccn1)N(C(=O)CCl)c1ccc(-c2cncs2)cc1 (single isomer, unassigned) [INSCoV-601G(2), 2-Chloro-N-(2-((4,4-difluorocyclohexyl)amino)-2-oxo-1-(pyrazin-2-yl)ethyl)-N-(4-(thiazol-5-yl)phenyl)acetamide] | 270 nM |
| COc1ccccc1CCN(C(=O)CCl)C(C(=O)NC1CCCCC1)c1cccnc1 (stereo not shown) [INSCoV-560A, 2-Chloro-N-(2-(Cyclohexylamino)-2-Oxo-1-(Pyridin-3-yl)Ethyl)-N-(2-Methoxyphenethyl)Acetamide] | 4340 nM |
| CC(C)(C)c1ccc(N(C(=O)CCl)C(C(=O)NC2CCCCC2)c2cccnc2)cc1 (single isomer, unassigned) [INSCoV-110A(1), 2-(4-tert-butyl-N-(2-chloroacetyl)anilino)-N-cyclohexyl-2-(3-pyridyl)acetamide] | 1980 nM |
| O=C(NC1CCC(F)(F)CC1)C(c1ccnnc1)N(C(=O)CCl)c1ccc(-c2cncs2)cc1 (stereo not shown) [INSCoV-601F, 2-Chloro-N-(2-((4,4-Difluorocyclohexyl)Amino)-2-Oxo-1-(Pvridazin-4-vl)Ethyl)-N-(4-(Thiazol-5-vl)Phenyl)Acetamide] | 130 nM |
| O=C(NC1CCOCC1)C(c1ccnnc1)N(C(=O)CCl)c1ccc(-c2cnco2)cc1 (stereo not shown) [INSCoV-600A] | 540 nM |
| CN1CCC(NC(=O)C(c2cncnc2)N(C(=O)CCl)c2ccc(-c3cnco3)cc2)CC1 (stereo not shown) [INSCoV-600M, 2-(N-(2-chloroacetyl)-4-oxazol-5-yl-anilino)-N-(1-methyl-4-piperidyl)-2-pyrimidin-5-yl-acetamide] | 500 nM |
| O=C(NC1CCC(F)(F)CC1)C(c1cncnc1)N(C(=O)CCl)c1ccc(-c2cnco2)cc1 (stereo not shown) [INSCoV-501I, 2-Chloro-N-(2-((4,4-difluorocyclohexyl)amino)-2-oxo-1-(pyrimidin-5-yl)ethyl)-N-(4-(oxazol-5-yl)phenyl)acetamide] | 390 nM |
| O=C(NC1CC2(C1)CC(F)(F)C2)C(c1cncnc1)N(C(=O)CCl)c1ccc(-c2cnco2)cc1 (stereo not shown) [INSCoV-600F] | 530 nM |
| O=C(NC1CCC(F)(F)CC1)C(c1cncnc1)N(C(=O)C(F)Cl)c1ccc(-c2cncs2)cc1 (stereo not shown) [INSCoV-614, 2-Chloro-N-(2-((4,4-difluorocyclohexyl)amino)-2-oxo-1-(pyrimidin-5-yl)ethyl)-2-fluoro-N-(4-(thiazol-5-yl)phenyl)acetamide] | 330 nM |
| Cc1cccc(CCN(C(=O)CCl)C(C(=O)NC2CCCCC2)c2cccnc2)c1 (stereo not shown) [INSCoV-503B] | 1000 nM |
| CC(C)(C)c1ccc(N(C(=O)CCl)C(C)(C(=O)NC2CCCCC2)c2cccnc2)cc1 (stereo not shown) [INSCoV-538A] | 900 nM |
| CC(C)(C)c1ccc(N(C(=O)CCl)[C@](C)(C(=O)NC2CCCCC2)c2cccnc2)cc1 [INSCoV-538A(2)] | 9600 nM |
| CC(C)(C)c1ccc(N(C(=O)C=O)C(C(=O)NC2CCCCC2)c2cccnc2)cc1 (stereo not shown) [INSCoV-110D] | > 50000 nM |
| CC(C)(C)c1ccc(N(C(=O)CCl)C(C(=O)NC2CCCCC2)c2cncc(O)c2)cc1 (stereo not shown) [INSCoV-535, N-(4-(Tert-Butyl)Phenyl)-2-Chloro-N-(2-(Cyclohexylamino)-1-(5-Hydroxypyridin-3-yl)-2-Oxoethyl)Acetamide] | 1040 nM |

| SMILES | IC50 |
| --- | --- |
| O=C(NC1CCC(F)(F)CC1)C(c1cncnc1)N(C(=O)CCl)c1ccc(-c2cncs2)cc1 (single isomer, unassigned) [INSCoV-600K(2), 2-Chloro-N-(2-((4,4-difluorocyclohexyl)amino)-2-oxo-1-(pyrimidin-5-yl)ethyl)-N-(4-(thiazol-5-yl)phenyl)acetamide] | 430 nM |
| O=C(NC1CCOC1)[C@H](c1cncnc1)N(C(=O)CCl)c1ccc(-c2cncs2)cc1 (stereo partly shown) [INSCoV-601R] | 120 nM |
| C=C(F)C(=O)N(c1ccc(-c2cncs2)cc1)C(C(=O)NC1CCC(F)(F)CC1)c1cncnc1 (stereo not shown) [INSCoV-616] | 8360 nM |
| O=C(NC1CCCCC1)C(c1cccnc1)N(CCc1c[nH]c2ccncc12)C(=O)CCl (stereo not shown) [INSCoV-516] | 1180 nM |
| C#CC(=O)N(c1ccc(C(C)(C)C)cc1)C(C(=O)NC1CCCCC1)c1cccnc1 (stereo not shown) [INSCoV-571] | 6280 nM |
| O=C(NC1CCC(F)(F)CC1)[C@@H](c1cncnc1)N(C(=O)[C@H](F)Cl)c1ccc(-c2ccno2)cc1 (single isomer, unassigned) [INSCoV-614A(1A), 2-Chloro-N-(2-((4,4-difluorocyclohexyl)amino)-2-oxo-1-(pyrimidin-5-yl)ethyl)-2-fluoro-N-(4-(isoxazol-5-yl)phenyl)acetamide] | 6740 nM |
| CC(C)(C)c1ccc(N(C(=O)CCl)[C@@](C)(C(=O)NC2CCCCC2)c2cccnc2)cc1 [INSCoV-538A(1)] | 230 nM |
| CC(C)(C)c1ccc(N(C(=O)CCl)C(C(=O)NC2CCCCC2)c2cncnc2)cc1 (stereo not shown) [INSCoV-536, N-(4-(Tert-Butyl)Phenyl)-2-Chloro-N-(2-(Cyclohexylamino)-2-Oxo-1-(Pyrimidin-5-yl)Ethyl)Acetamide] | 620 nM |
| O=C(NC1CCC(F)(F)CC1)C(c1cncnc1)N(C(=O)CCl)c1ccc(-c2ccncn2)cc1 (stereo not shown) [INSCoV-600L, 2-(N-(2-chloroacetyl)-4-pyrimidin-4-yl-anilino)-N-(4,4-difluorocyclohexyl)-2-pyrimidin-5-yl-acetamide] | 450 nM |
| Cc1cc(-c2cccnc2)cc(F)c1NC(=O)C(c1cncnc1)N(C(=O)CCl)c1ccc(-c2cnco2)cc1 (stereo not shown) [INSCoV-600X] | 1390 nM |
| O=C(NC1CC2(C1)CS(=O)(=O)C2)C(c1cncnc1)N(C(=O)CCl)c1ccc(-c2cnco2)cc1 (stereo not shown) [INSCoV-600H] | 660 nM |
| O=C(NC1CCC(F)(F)CC1)[C@H](c1cncnc1)N(C(=O)[C@H]1CO1)c1ccc(-c2cnco2)cc1 [INSCoV-600R(1A)] | > 25000 nM |
| O=C(NC1CCC(F)(F)CC1)[C@H](c1ccnnc1)N(C(=O)CCl)c1ccc(-c2ccns2)cc1 [INSCoV-601J(2)] | 530 nM |
| O=C(N[C@H]1CCOC1)[C@@H](c1cncnc1)N(C(=O)CCl)c1ccc(-c2cnco2)cc1 [INSCoV-600C(1A)] | 340 nM |
| CC(C(=O)NC1CCC(F)(F)CC1)(c1cncnc1)N(C(=O)CCl)c1ccc(-c2ccno2)cc1 (stereo not shown) [INSCoV-601P, 2-(2-Chloro-N-(4-(isoxazol-5-yl)phenyl)acetamido)-N-(4,4-difluorocyclohexyl)-2-(pyrimidin-5-yl)propanamide] | 380 nM |
| O=C(NC1CCOC1)C(c1cncnc1)N(C(=O)CCl)c1ccc(-c2cnco2)cc1 (stereo not shown) [INSCoV-600C] | 220 nM |
| O=C(NC1CCC(F)(F)CC1)[C@H](c1cncnc1)N(C(=O)[C@H](F)Cl)c1ccc(-c2cncs2)cc1 (single isomer, unassigned) [INSCoV-614(2A), 2-Chloro-N-(2-((4,4-difluorocyclohexyl)amino)-2-oxo-1-(pyrimidin-5-yl)ethyl)-2-fluoro-N-(4-(thiazol-5-yl)phenyl)acetamide] | 6940 nM |
